The values below are quoted from earlier work in US12396967B2 (Pulmonem Inc., priority 2020, dated 2025).

This series relates to human bronchial epithelial cells stimulated with lipopolysaccharide.

For the molecule `Nc1ccc(S(=O)(=O)c2ccc(N)cc2)cc1` [Dapsone, 4,4′-diamino-diphenyl sulfone], the IL-8 secretion result is recorded as “inhibits IL-8 secretion”.
